Measured values published in patent US10441555B2, “Pharmaceutical composition” (Olatec Therapeutics LLC, priority 2012, dated 2019).
Where a name gives a salt, the structure may show the parent alone.

Columns and labels:
[1] = tested on: arachidonic acid-induced ear swelling; test: topical arachidonic acid-induced ear swelling model in mice; type: in vivo; settings: male ICR mice, topical application 30 min before and 15 min after arachidonic acid; measured at 60 minutes; test compounds 375 mM, indomethacin 14 mM; n=10
Procedure: The test compounds, indomethacin (positive control), and vehicle were evaluated for anti-inflammatory activity in a topical arachidonic acid-induced ear swelling model in mice. Male ICR mice weighing 22±2 g were used and randomly divided; each group had 10 mice. Arachidonic Acid (0.5 mg in 20 μl of acetone:ethanol/1:1) was applied topically to the anterior and posterior surfaces of the right ear of each mice. Test substances and vehicle, as listed in Table 1 were similarly applied 30 min before and 15 min after arachidonic acid application. The thickness of the right ear and the left ear was measured and the difference calculated as an indication of the inflammation in the right ear. Ear swelling was measured by a Dyer model micrometer gauge at 60 and 90 minutes after arachidonic acid application as an index of inflammation. Percent inhibition was calculated according to the formula: Ic−It/Ic×100, where Ic and It refers to increase of ear thickness (mm) in control and treated mice, respectively. ANOVA and Dunnett's test were employed to ascertain significant difference between vehicle control and treated groups. Significance is set at P<0.05 level.

Row | melting point [°C] | SMILES | % Inhibition of ear swelling [1] [%]
1 | 146.9 to 147.4 | CS(=O)(=O)CCCN (as salt: hydrochloride) [3-(methylsulfonyl)propylamine] | 
2 |  | CS(=O)(=O)CCCN [3-(methylsulfonyl)propylamine] | 42
3 |  | COc1ccc2c(c1)c(CC(=O)O)c(C)n2C(=O)c1ccc(Cl)cc1 [Indomethacin, indomethacin, reference compound] | 54
4 |  | CS(=O)(=O)CCC(N)=O [3-(methylsulfonyl)propionamide] | 30
